US12162858B2, “Quinoline derivatives as inhibitors of AXL/MER RTK and CSF1R” (QURIENT CO., LTD., priority 2018, dated 2024)
pIC50: −log10 of the molar value.

Key:
Axl = target: T1, Axl (Homo sapiens, UniProt P30530); test: Cellular Axl inhibition ELISA (p-Axl, Gas6-induced) using H1299 cells; assay type: cell-based; parameters: especially H1299 cell endogenously expresses Axl; endogenous in cells; host or cells: H1299; details: read-out: Cellular Axl activity by H1299 Elisa (IC50)
T1 sequence (P30530 26-894): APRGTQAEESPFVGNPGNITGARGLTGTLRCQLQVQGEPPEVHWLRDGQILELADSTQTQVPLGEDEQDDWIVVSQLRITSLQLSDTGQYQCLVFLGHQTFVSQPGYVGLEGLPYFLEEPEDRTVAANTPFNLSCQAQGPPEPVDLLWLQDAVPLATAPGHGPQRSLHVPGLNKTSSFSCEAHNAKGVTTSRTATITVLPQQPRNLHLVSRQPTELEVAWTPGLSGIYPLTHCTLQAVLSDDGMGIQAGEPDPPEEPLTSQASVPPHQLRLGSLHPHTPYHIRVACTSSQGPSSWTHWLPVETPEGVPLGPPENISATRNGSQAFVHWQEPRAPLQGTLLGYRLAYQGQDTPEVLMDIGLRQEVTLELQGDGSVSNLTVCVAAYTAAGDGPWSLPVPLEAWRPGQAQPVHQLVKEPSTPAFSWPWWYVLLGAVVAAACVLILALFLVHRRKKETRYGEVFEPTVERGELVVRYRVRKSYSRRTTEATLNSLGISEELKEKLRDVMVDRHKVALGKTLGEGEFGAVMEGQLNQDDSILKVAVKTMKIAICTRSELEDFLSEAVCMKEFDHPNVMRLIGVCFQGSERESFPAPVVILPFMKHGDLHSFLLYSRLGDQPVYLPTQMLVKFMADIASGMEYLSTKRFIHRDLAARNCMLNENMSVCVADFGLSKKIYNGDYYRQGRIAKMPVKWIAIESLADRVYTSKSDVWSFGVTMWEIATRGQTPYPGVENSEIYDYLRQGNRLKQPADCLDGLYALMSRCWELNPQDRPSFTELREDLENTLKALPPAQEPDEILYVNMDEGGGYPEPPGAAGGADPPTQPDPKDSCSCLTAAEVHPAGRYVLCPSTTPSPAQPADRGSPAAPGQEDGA
In short: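 H1299 cells, seeded overnight, exposed 24 h at 37 °C to 10-point 3-fold compound dilutions, then stimulated with 200 ng/ml human Gas6 (final) for 1 h. Lysates assayed for p-Axl by sandwich ELISA with HRP/TMB, absorbance 450 nm; IC50 by sigmoidal dose-response fit.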

CSF1R (M-NFS-60 cells) = test: Cell Titer-Glo viability assay using M-NFS-60 cells; assay type: cell-based; details: Mus musculus, read-out: Cellular CSF1R activity by M-NFS-60 viability assay (IC50 activity range)
In short: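 M-NFS-60 cells grown with 62 ng/ml recombinant human M-CSF, seeded at 2×10^5 cells/well and incubated at 37 °C/5% CO2. Compounds given as 3-fold serial dilutions (10 doses); viability read by CellTiter-Glo luminescence, sigmoidal dose-response fit.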

| SMILES | pIC50 (Axl) | pIC50 (CSF1R (M-NFS-60 cells)) |
| --- | --- | --- |
| CCCn1cc(OCCN(C)C)c(C(=O)Nc2ccc(Oc3ccnc4cc(OC)c(OC)cc34)cn2)n1 [Compound 177] | > 6.30 | 5.00 to 6.00 |
| COc1cc2nccc(Oc3ccc(NC(=O)c4nn(CCN)cc4OCC(F)(F)F)c(F)c3)c2cc1OC [Compound 75] | > 6.30 | 5.00 to 6.00 |
| COc1cc2nccc(Oc3ccc(NC(=O)c4nn(CC(C)=O)cc4OCC(F)(F)F)nc3)c2cc1OC [Compound 19] | > 6.30 | > 6.00 |
| COc1cc2nccc(Oc3ccc(NC(=O)c4nn(C5COC5)cc4OCC(F)(F)F)nc3)c2cc1OC [Compound 66] | > 6.30 | 5.00 to 6.00 |
| COc1cc2nccc(Oc3ccc(NC(=O)c4nn(C(C)(C)C)cc4OCC(F)(F)F)nc3)c2cc1OC [Compound 22] | > 6.30 | > 6.00 |
| COc1cc2nccc(Oc3ccc(NC(=O)c4nn(CCC#N)cc4OCC(F)(F)F)nc3)c2cc1OC [Compound 39] | > 6.30 | > 6.00 |
| COc1cc2nccc(Oc3ccc(NC(=O)c4nn(CC(C)C)cc4OCC(F)(F)F)nc3)c2cc1OC [Compound 21] | > 6.30 | > 6.00 |
| COc1cc2nccc(Oc3ccc(NC(=O)c4nn(C5CC5)cc4OCCC(F)(F)F)nc3)c2cc1OC [Compound 170] | > 6.30 | > 6.00 |
| CCCn1cc(NCC(F)(F)F)c(C(=O)Nc2ccc(Oc3ccnc4cc(OC)c(OC)cc34)cn2)n1 [Compound 23] | > 6.30 | > 6.00 |
| COc1cc2nccc(Oc3ccc(NC(=O)c4nn(C5CCCC5)cc4OCC(F)(F)F)c(F)c3)c2cc1OC [Compound 47] | > 6.30 | > 6.00 |
| COc1cc2nccc(Oc3ccc(NC(=O)c4nn(CC5CCCCC5)cc4OCC(F)(F)F)nc3)c2cc1OC [Compound 43] | > 6.30 | > 6.00 |
| COc1cc2nccc(Oc3ccc(NC(=O)c4nn(C)cc4OCC(F)(F)F)cc3F)c2cc1OC [Compound 50] | > 6.30 | 5.00 to 6.00 |
| COc1cc2nccc(Oc3ccc(NC(=O)c4nn(CC(C)O)cc4OCC(F)(F)F)c(F)c3)c2cc1OC (stereo not drawn) [Compound 76] | > 6.30 | 5.00 to 6.00 |
| COc1cc2nccc(Oc3ccc(NC(=O)c4nn(CC(C)N)cc4OCC(F)(F)F)nc3)c2cc1OC (stereo not drawn) [Compound 63] | > 6.30 | 5.00 to 6.00 |
| COc1cc2nccc(Oc3ccc(NC(=O)c4nn(CC5CCN(C)C5)cc4OCC(F)(F)F)nc3)c2cc1OC (stereo not drawn) [Compound 169] | ≤ 6.00 | > 6.00 |
| COc1cc2nccc(Oc3ccc(NC(=O)c4nn(CC5CCC5)cc4OCC(F)(F)F)nc3)c2cc1OC [Compound 42] | > 6.30 | > 6.00 |
| COc1cc2nccc(Oc3ccc(NC(=O)c4nn(C5CCCC5)cc4OCC(F)(F)F)cc3F)c2cc1OC [Compound 52] | > 6.30 | > 6.00 |
| CCCn1cc(OCC(F)(F)F)c(C(=O)Nc2ccc(Oc3ccnc4cc(OC)c(OC)cc34)cc2C)n1 [Compound 27] | > 6.30 | 5.00 to 6.00 |
| COCCOc1cn(C2CC2)nc1C(=O)Nc1ccc(Oc2ccnc3cc(OC)c(OC)cc23)nn1 [Compound 171] | > 6.30 | ≤ 5.00 |
| COc1cc2nccc(Oc3ccc(NC(=O)c4nn(C5CC5)cc4OCC4CNC4)nn3)c2cc1OC [Compound 172] | ≤ 6.00 | ≤ 5.00 |
| COc1cc2nccc(Oc3ccc(NC(=O)c4nn(C)cc4OCC(F)(F)F)nc3)c2cc1OC [Compound 33] | > 6.30 | > 6.00 |
| COc1cc2nccc(Oc3ccc(NC(=O)c4nn(CCCN)cc4OCC(F)(F)F)nc3)c2cc1OC [Compound 68] | > 6.30 | 5.00 to 6.00 |
| COc1cc2nccc(Oc3ccc(NC(=O)c4nn(CC5CNC5)cc4OCC(F)(F)F)nc3)c2cc1OC [Compound 73] | ≤ 6.00 | 5.00 to 6.00 |
| COc1cc2nccc(Oc3ccc(NC(=O)c4nn(CC(C)C)cc4OCC(F)(F)F)c(F)c3)c2cc1OC [Compound 48] | > 6.30 | > 6.00 |
| COc1cc2nccc(Oc3ccc(NC(=O)c4nn(C5CCOC5)cc4OCC(F)(F)F)cc3)c2cc1OC (stereo not drawn) [Compound 62] | > 6.30 | 5.00 to 6.00 |
| COc1cc2nccc(Oc3ccc(NC(=O)c4nn(C(C)C)c(C)c4OCC(F)(F)F)nc3)c2cc1OC [Compound 2] | > 6.30 | > 6.00 |
| CCC(=O)n1cc(OCC(F)(F)F)c(C(=O)Nc2ccc(Oc3ccnc4cc(OC)c(OC)cc34)cn2)n1 [Compound 20] | > 6.30 | > 6.00 |
| CCCCn1cc(OCC(F)(F)F)c(C(=O)Nc2ccc(Oc3ccnc4cc(OC)c(OC)cc34)cn2)n1 [Compound 36] | > 6.30 | > 6.00 |
| COc1cc2nccc(Oc3ccc(NC(=O)c4nn(C[C@H](C)O)cc4OCC(F)(F)F)nc3)c2cc1OC [Compound 30] | > 6.30 | > 6.00 |
| COc1cc2nccc(Oc3ccc(NC(=O)c4nn(CCO)cc4OCC(F)(F)F)cc3F)c2cc1OC [Compound 51] | > 6.30 | > 6.00 |
